Legend:
Assay in all cases: relative viability (nuclei count vs DMSO), 5 days (fraction); higher = more cells survive
GSK126 + Vorinostat = compound: CC[C@H](C)N1C=C(C2=C(C=C(C=C21)C3=CN=C(C=C3)N4CCNCC4)C(=O)NCC5=C(C=C(NC5=O)C)C)C [GSK126] + O=C(CCCCCCC(=O)Nc1ccccc1)NO [Vorinostat] (partner 1 µM)
In short: (§1)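 A single step with final 0.05% Triton X-100, 1% formaldehyde and 1 ug/ml Hoechst fixed the cells and stained nuclei 5 days after treatment. Lung cancer cell lines in 1536-well plates had been treated by pin tool the day after seeding with one drug alone or a fixed anchor-drug dose plus five library-drug doses (not always all listed) in √10 steps, and nuclei were counted on 4× images. Relative viability is the ratio of nuclei in treated wells to nuclei in vehicle wells, taken as the median of duplicate plates.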

MLN4924 + Tozasertib = compound: NS(=O)(=O)OC[C@@H]1C[C@@H](n2ccc3c(N[C@H]4CCc5ccccc54)ncnc32)C[C@@H]1O [MLN4924] + Cc1cc(Nc2cc(N3CCN(C)CC3)nc(Sc3ccc(NC(=O)C4CC4)cc3)n2)n[nH]1 [Tozasertib] (partner 0.1 µM)
In short: as §1

MLN4924 + Dasatinib = compound: NS(=O)(=O)OC[C@@H]1C[C@@H](n2ccc3c(N[C@H]4CCc5ccccc54)ncnc32)C[C@@H]1O [MLN4924] + Cc1nc(Nc2ncc(C(=O)Nc3c(C)cccc3Cl)s2)cc(N2CCN(CCO)CC2)n1 [Dasatinib] (partner 0.075 µM)
In short: as §1

GSK126 + Alpelisib = compound: CC[C@H](C)N1C=C(C2=C(C=C(C=C21)C3=CN=C(C=C3)N4CCNCC4)C(=O)NCC5=C(C=C(NC5=O)C)C)C [GSK126] + Cc1nc(NC(=O)N2CCC[C@H]2C(N)=O)sc1-c1ccnc(C(C)(C)C(F)(F)F)c1 [Alpelisib] (partner 2 µM)
In short: as §1

Cell Line | relative viability (GSK126 + Vorinostat; first compound 0.08 µM) | relative viability (GSK126 + Vorinostat; first compound 0.253 µM) | relative viability (GSK126 + Vorinostat; first compound 0.8 µM) | relative viability (GSK126 + Vorinostat; first compound 2.53 µM) | relative viability (GSK126 + Vorinostat; first compound 8 µM) | relative viability (MLN4924 + Tozasertib; first compound 0.04 µM) | relative viability (MLN4924 + Tozasertib; first compound 0.1265 µM) | relative viability (MLN4924 + Tozasertib; first compound 0.4 µM) | relative viability (MLN4924 + Tozasertib; first compound 1.265 µM) | relative viability (MLN4924 + Tozasertib; first compound 4 µM) | relative viability (MLN4924 + Dasatinib; first compound 0.04 µM) | relative viability (MLN4924 + Dasatinib; first compound 0.1265 µM) | relative viability (MLN4924 + Dasatinib; first compound 0.4 µM) | relative viability (MLN4924 + Dasatinib; first compound 1.265 µM) | relative viability (MLN4924 + Dasatinib; first compound 4 µM) | relative viability (GSK126 + Alpelisib; first compound 0.08 µM) | relative viability (GSK126 + Alpelisib; first compound 0.253 µM) | relative viability (GSK126 + Alpelisib; first compound 0.8 µM) | relative viability (GSK126 + Alpelisib; first compound 2.53 µM) | relative viability (GSK126 + Alpelisib; first compound 8 µM)
NCI-H2170 | 0.914 | 1.01 | 0.748 | 0.799 | 0.772 | 0.722 | 0.407 | 0.325 | 0.151 | 0.155 | 0.866 | 0.767 | 0.264 | 0.127 | 0.129 | 0.932 | 0.852 | 0.839 | 0.795 | 0.745
NCI-H2085 | 0.851 | 0.813 | 0.804 | 0.841 | 0.948 | 0.855 | 0.894 | 0.827 | 0.78 | 0.48 | 0.215 | 0.226 | 0.339 | 0.393 | 0.292 | 1.07 | 0.912 | 1 | 0.906 | 0.995
LCLC-103H | 0.888 | 0.906 | 0.77 | 0.786 | 0.761 | 0.493 | 0.533 | 0.364 | 0.168 | 0.137 | 0.452 | 0.569 | 0.653 | 0.141 | 0.112 | 0.953 | 1.02 | 0.927 | 0.992 | 1.03
EKVX | 0.778 | 0.659 | 0.708 | 0.687 | 0.574 | 0.408 | 0.457 | 0.299 | 0.155 | 0.127 | 0.588 | 0.261 | 0.471 | 0.193 | 0.238 | 0.961 | 0.92 | 0.819 | 0.813 | 0.746
201T | 1.05 | 1.04 | 0.954 | 1.13 | 1.15 | 1.07 | 0.737 | 0.697 | 0.301 | 0.319 | 0.69 | 0.615 | 0.598 | 0.319 | 0.318 | 0.999 | 1.07 | 1.02 | 1.05 | 1.1
NCI-H2023 | 0.962 | 0.804 | 0.533 | 0.709 | 0.712 | 0.35 | 0.31 | 0.171 | 0.0719 | 0.0659 | 0.618 | 0.602 | 0.325 | 0.0611 | 0.0616 | 0.635 | 0.641 | 0.588 | 0.677 | 0.571
NCI-H1395 | 0.655 | 0.731 | 0.715 | 0.855 | 0.743 | 0.72 | 0.609 | 0.475 | 0.397 | 0.337 | 0.474 | 0.493 | 0.552 | 0.507 | 0.331 | 1.12 | 0.937 | 1.08 | 1.2 | 1.03
NCI-H2347 | 0.659 | 0.479 | 0.503 | 0.601 | 0.563 | 0.647 | 0.546 | 0.386 | 0.283 | 0.241 | 0.265 | 0.369 | 0.231 | 0.218 | 0.244 | 1.22 | 0.918 | 1.09 | 0.99 | 0.907
LXF-289 | 0.8 | 0.832 | 0.718 | 0.787 | 0.707 | 0.194 | 0.162 | 0.155 | 0.083 | 0.0804 | 0.215 | 0.203 | 0.251 | 0.0849 | 0.0735 | 1.1 | 1.05 | 1.02 | 1.01 | 1.02
EMC-BAC-2 | 0.427 | 0.4 | 0.442 | 0.451 | 0.499 | 0.254 | 0.254 | 0.208 | 0.212 | 0.239 | 0.584 | 0.572 | 0.32 | 0.191 | 0.159 | 0.785 | 0.77 | 0.718 | 0.731 | 0.765

— the supplement of paper PMC10307832
